This is an account of results in patent publication US20210317077A1, “Crystalline Forms of N1-(1-Cyanocycloproply)-N2-((1S)-1-{4'-[(1R-2,2-Difluoro-1-Hydroxyethyl]Biphenyl-4-YL}-2,2,2-Trifluoroethyl)-4-Fluoro-L-Leucinamide” (Intervet Inc., priority 2018, published 2021).

For data set [1] the following is noted: competitive slurry in ethanol/water at 25, 30, 35 and 40° C.; enantiotropically related forms. As to the method: Competitive slurry experiments of Forms A and B in ethanol/water at 25° C., 30° C., 35° C. and 40° C. were used to establish the transition temperature of the enantiotropic forms.
For data set [2] the following is noted: Form A: temperature range where Form B is stable; Form B: process solvent above 50° C., few hours, no Form A seeds.
The procedure of data set [3]:
The Form B crystals were added to the SLS and PVP to form a slurry. […] FIG. 9 depicts complimentary in situ process analytical data from Raman spectroscopy (on solute concentration and solid phase composition) and Focused Beam Reflectance Measurement (FBRM characterizing number and dimension of the dispersed particles).

Each structure is given as a SMILES string.

For `CC(C)(F)C[C@H](N[C@@H](c1ccc(-c2ccc([C@@H](O)C(F)F)cc2)cc1)C(F)(F)F)C(=O)NC1(C#N)CC1` [Form A], in data set [1], the “temperature at which the form is the more stable form” value was at least 40 °C. Also, the “form conversion during API process and DP processing timeframes” value in data set [2] is listed as “does not convert to Form B”. Also, the “relative solubility of the forms (Raman solute signal)” value in data set [3] (80° C., slurry in aqueous SLS and PVP) is “lower solubility”.

For `CC(C)(F)C[C@H](N[C@@H](c1ccc(-c2ccc([C@@H](O)C(F)F)cc2)cc1)C(F)(F)F)C(=O)NC1(C#N)CC1` [Form B], in data set [1], the “temperature at which the form is the more stable form” value is at most 30 °C. In addition, the “form conversion during API process and DP processing timeframes” value in data set [2] was “converts to Form A”. Further, the “time for conversion of most Form B crystals to Form A crystals” value in data set [3] (80° C., slurry in aqueous SLS and PVP, after introduction of Form A crystal seeds) was at most 2 h. In addition, the “Form A detected before seeding” value in data set [3] (Form B slurry in aqueous SLS and PVP raised to 80° C., before Form A seeds) is reported as “no Form A detected”.
